According to patent US10669271B2, “Heterocyclic compounds as immunomodulators” (Incyte Corporation, priority 2018, dated 2020):

Tests used:
[1] = target: PD-1/PD-L1 (Homo sapiens (Human), UniProt Q9NZQ7); assay: Homogeneous Time-Resolved Fluorescence (HTRF) PD-1/PD-L1 binding assay; details: recombinant human PD-1 and PD-L1, 25° C., pH 7.4
Summary of the method: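 His-tagged PD-L1 (19-238, 10 nM) and Fc-tagged PD-1 (25-167, 3 nM) preincubated 40 min with inhibitors in PBS pH 7.4, 0.05% Tween-20, 0.1% BSA, 1% DMSO, 25 °C. Eu anti-IgG (1 nM) and anti-His-APC (20 nM) added, 60 min at 25 °C; 665/620 nm ratio fitted for IC50.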

[2] = target: PD-L1 (Homo sapiens (Human), UniProt Q9NZQ7); assay: PD-L1 whole blood internalization assay; type: cell-based; details: 1 ng/ml human interferon γ, PD-L1 expression on CD14+ cells, read-out: Whole Blood (24 HR) IC50
Sequence of PD-L1 (Q9NZQ7 19-290): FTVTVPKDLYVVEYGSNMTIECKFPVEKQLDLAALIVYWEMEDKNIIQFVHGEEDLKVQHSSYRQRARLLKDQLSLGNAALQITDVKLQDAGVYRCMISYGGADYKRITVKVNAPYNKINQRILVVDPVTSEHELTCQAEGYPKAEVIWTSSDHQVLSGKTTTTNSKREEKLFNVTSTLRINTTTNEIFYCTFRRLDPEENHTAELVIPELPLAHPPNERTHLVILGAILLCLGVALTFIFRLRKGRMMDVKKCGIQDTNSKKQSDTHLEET
Summary of the method: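 Normal human whole blood was exposed to a range of test compound concentrations together with 1 ng/ml human interferon γ, then stained for PD-L1 and CD14 for 30 minutes at room temperature in the dark. After red cell lysis/fixation and centrifugation, CD14+ cells were analyzed by flow cytometry for PD-L1 MFI, and IC50 values came from percent inhibition versus log concentration fits.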

[3] = system: U2OS/PD-L1 cells and Jurkat-PD-1-SHP cells; assay: Src homology region 2 domain-containing phosphatase (SHP) assay; type: cell-based; details: Homo sapiens; U2OS/PD-L1 cells with Jurkat-PD-1-SHP cells, 2 hours
Summary of the method: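 U2OS/PD-L1 cells (5000/well) in RPMI1640 with 1% FBS were treated with serially diluted compounds (0.05% DMSO final) and co-incubated with 5,000 Jurkat-PD-1-SHP cells for 2 h at 37 °C. PathHunter enzyme-fragment chemiluminescence was read after 1 h at room temperature. IC50 came from percent-of-control activity versus log concentration.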

[4] = system: PD-L1 aAPC/CHO-K1 cells and Jurkat-PD-1-NFAT effector cells; assay: Nuclear factor of activated T-cells (NFAT) assay; type: cell-based; details: Cricetulus griseus; PD-L1 aAPC/CHO-K1 cells with Jurkat-PD-1-NFAT effector cells, 24 hours
Summary of the method: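 PD-L1 aAPC/CHO-K1 cells co-cultured with Jurkat-PD-1-NFAT effector cells in RPMI 1640 with 1% FBS, compound top concentration 2 μM, 0.4% DMSO, 24 h at 37 °C. Bio-Glo luminescence read; fold induction normalized to DMSO wells, maximum induction relative to control compound, EC50 from percent control activity versus log concentration.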

Sequence of PD-1/PD-L1 (Q9NZQ7 19-238): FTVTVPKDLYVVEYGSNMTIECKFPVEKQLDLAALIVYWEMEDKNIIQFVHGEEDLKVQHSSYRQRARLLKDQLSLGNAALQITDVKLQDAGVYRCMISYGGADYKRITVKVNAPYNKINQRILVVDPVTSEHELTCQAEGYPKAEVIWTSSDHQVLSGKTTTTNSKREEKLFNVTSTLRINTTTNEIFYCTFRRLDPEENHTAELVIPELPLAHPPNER

Compound: Cc1nc(Nc2cccc(-c3cccc(-c4nc5cc(CN6CCC(C(=O)O)CC6)cc(C#N)c5o4)c3C)c2C)c2ncc(CN3CC[C@@H](O)C3)cc2n1 [Example 1, (R)-1-((7-cyano-2-(3′-(7-((3-hydroxypyrrolidin-1-yl)methyl)-2-methylpyrido[3,2-d]pyrimidin-4-ylamino)-2,2′-dimethylbiphenyl-3-yl)benzo[d]oxazol-5-yl)methyl)piperidine-4-carboxylic Acid]
- IC50 [1]: ≤ 10 nM
- IC50 [2]: 10 to 100 nM
- IC50 [3]: ≤ 10 nM
- EC50 [4]: 10 to 100 nM

Compound: Cc1nc(Nc2cccc(-c3cccc(-c4nc5cc(CN6CCC(C(=O)O)CC6)cc(C#N)c5o4)c3C)c2C)c2ncc(CN3CC[C@@](C)(O)C3)cc2n1 [Example 2, (R)-1-((7-cyano-2-(3′-(7-((3-hydroxy-3-methylpyrrolidin-1-yl)methyl)-2-methylpyrido[3,2-d]pyrimidin-4-ylamino)-2,2′-dimethylbiphenyl-3-yl)benzo[d]oxazol-5-yl)methyl)piperidine-4-carboxylic Acid]
- IC50 [1]: ≤ 10 nM
- IC50 [2]: 10 to 100 nM
- IC50 [3]: ≤ 10 nM
- EC50 [4]: 10 to 100 nM

Compound: Cc1c(Nc2nc(C(F)F)nc3cc(CN4CC[C@](C)(O)C4)cnc23)cccc1-c1cccc(-c2nc3cc(CN4CCC(C(=O)O)CC4)cc(C#N)c3o2)c1C [Example 31, (S)-1-((7-cyano-2-(3′-(2-(difluoromethyl)-7-((3-hydroxy-3-methylpyrrolidin-1-yl)methyl)pyrido[3,2-d]pyrimidin-4-ylamino)-2,2′-dimethylbiphenyl-3-yl)benzo[d]oxazol-5-yl)methyl)piperidine-4-carboxylic Acid]
- IC50 [1]: ≤ 10 nM
- IC50 [2]: 10 to 100 nM
- IC50 [3]: ≤ 10 nM
- EC50 [4]: ≤ 10 nM

Compound: Cc1c(Nc2nc(C(F)F)nc3cc(CN4CC[C@@H](O)C4)cnc23)cccc1-c1cccc(-c2nc3cc(CN4CC[C@@H](C(=O)O)C4)cc(C#N)c3o2)c1C [Example 17, (R)-1-((7-cyano-2-(3′-(2-(difluoromethyl)-7-(((R)-3-hydroxypyrrolidin-1-yl)methyl)pyrido[3,2-d]pyrimidin-4-ylamino)-2,2′-dimethylbiphenyl-3-yl)benzo[d]oxazol-5-yl)methyl)pyrrolidine-3-carboxylic Acid]
- IC50 [1]: ≤ 10 nM
- IC50 [2]: 10 to 100 nM
- IC50 [3]: ≤ 10 nM
- EC50 [4]: 10 to 100 nM

Compound: Cc1c(Nc2nc(C(F)F)nc3cc(CN4CC[C@@](C)(O)C4)cnc23)cccc1-c1cccc(-c2nc3cc(CN4CCC(C(=O)O)CC4)cc(C#N)c3o2)c1C [Example 30, (R)-1-((7-cyano-2-(3′-(2-(difluoromethyl)-7-((3-hydroxy-3-methylpyrrolidin-1-yl)methyl)pyrido[3,2-d]pyrimidin-4-ylamino)-2,2′-dimethylbiphenyl-3-yl)benzo[d]oxazol-5-yl)methyl)piperidine-4-carboxylic Acid]
- IC50 [1]: ≤ 10 nM
- IC50 [2]: 10 to 100 nM
- IC50 [3]: ≤ 10 nM
- EC50 [4]: ≤ 10 nM

Compound: Cc1nc(Nc2cccc(-c3cccc(-c4nc5cc(CN6CC[C@@](C)(C(=O)O)C6)cc(C#N)c5o4)c3C)c2C)c2ncc(CN[C@@H](C)CO)cc2n1 [Example 14, (R)-1-((7-cyano-2-(3′-(7-(((S)-1-hydroxypropan-2-ylamino)methyl)-2-methylpyrido[3,2-d]pyrimidin-4-ylamino)-2,2′-dimethylbiphenyl-3-yl)benzo[d]oxazol-5-yl)methyl)-3-methylpyrrolidine-3-carboxylic Acid]
- IC50 [1]: ≤ 10 nM
- IC50 [2]: 10 to 100 nM
- IC50 [3]: ≤ 10 nM
- EC50 [4]: 10 to 100 nM

Compound: Cc1nc(Nc2cccc(-c3cccc(-c4nc5cc(CN6CC[C@@](C)(C(=O)O)C6)cc(C#N)c5o4)c3C)c2C)c2ncc(CN3CC[C@](C)(O)C3)cc2n1 [Example 13, (R)-1-((7-cyano-2-(3′-(7-(((S)-3-hydroxy-3-methylpyrrolidin-1-yl)methyl)-2-methylpyrido[3,2-d]pyrimidin-4-ylamino)-2,2′-dimethylbiphenyl-3-yl)benzo[d]oxazol-5-yl)methyl)-3-methylpyrrolidine-3-carboxylic Acid]
- IC50 [1]: ≤ 10 nM
- IC50 [2]: 10 to 100 nM
- IC50 [3]: ≤ 10 nM
- EC50 [4]: 10 to 100 nM
